Measurements: paper PMC6891286, “Towards the Development of an In vivo Chemical Probe for Cyclin G Associated Kinase (GAK)” (Molecules, 2019)
Read-outs that look alike come from different tables or passages of the source.

Experiments:
GAK [1] = biological target: T1, GAK (Homo sapiens, UniProt O14976); experiment: TR-FRET ligand-binding displacement assay
T1 sequence (O14976 1-1311): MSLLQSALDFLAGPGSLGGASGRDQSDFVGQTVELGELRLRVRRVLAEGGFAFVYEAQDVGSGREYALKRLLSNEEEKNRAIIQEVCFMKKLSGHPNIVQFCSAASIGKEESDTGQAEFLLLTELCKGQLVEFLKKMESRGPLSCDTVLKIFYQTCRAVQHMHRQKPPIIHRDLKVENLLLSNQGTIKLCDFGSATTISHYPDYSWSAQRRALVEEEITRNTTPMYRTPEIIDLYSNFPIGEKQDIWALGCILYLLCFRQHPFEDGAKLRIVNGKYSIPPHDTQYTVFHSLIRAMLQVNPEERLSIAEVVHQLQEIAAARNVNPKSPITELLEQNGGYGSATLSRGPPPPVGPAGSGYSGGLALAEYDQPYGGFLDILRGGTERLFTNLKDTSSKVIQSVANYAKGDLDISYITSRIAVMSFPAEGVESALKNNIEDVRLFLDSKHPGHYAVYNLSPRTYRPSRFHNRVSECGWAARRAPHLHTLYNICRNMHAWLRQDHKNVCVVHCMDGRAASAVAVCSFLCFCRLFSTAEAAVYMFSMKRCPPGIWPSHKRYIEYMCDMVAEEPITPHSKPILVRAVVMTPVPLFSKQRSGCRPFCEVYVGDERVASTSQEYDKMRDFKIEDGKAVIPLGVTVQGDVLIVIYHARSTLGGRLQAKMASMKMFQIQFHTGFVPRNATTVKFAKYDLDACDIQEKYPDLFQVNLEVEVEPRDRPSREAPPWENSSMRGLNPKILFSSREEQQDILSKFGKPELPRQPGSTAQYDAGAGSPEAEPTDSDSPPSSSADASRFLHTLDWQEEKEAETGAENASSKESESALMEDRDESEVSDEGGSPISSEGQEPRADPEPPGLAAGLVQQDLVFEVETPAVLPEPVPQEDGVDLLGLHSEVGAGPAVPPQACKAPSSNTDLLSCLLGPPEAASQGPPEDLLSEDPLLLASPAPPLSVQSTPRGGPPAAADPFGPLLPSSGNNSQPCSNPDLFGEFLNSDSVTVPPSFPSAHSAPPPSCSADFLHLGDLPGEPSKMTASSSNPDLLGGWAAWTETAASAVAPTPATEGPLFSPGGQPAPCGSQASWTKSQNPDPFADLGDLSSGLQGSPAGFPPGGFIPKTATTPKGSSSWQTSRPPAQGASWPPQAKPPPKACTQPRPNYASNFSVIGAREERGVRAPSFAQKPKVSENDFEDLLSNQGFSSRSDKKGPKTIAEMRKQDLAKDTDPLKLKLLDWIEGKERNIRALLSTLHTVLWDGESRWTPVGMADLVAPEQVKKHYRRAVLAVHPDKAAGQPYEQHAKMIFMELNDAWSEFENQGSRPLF

[2] = mouse liver microsome metabolic stability; conditions: mouse liver microsomes; for T1/2 Ratio (+) ABT / T1/2 Ratio (−) ABT: normalized to propranolol; for T1/2 Ratio: normalization with respect to internal control (propranolol); for CLint scaled / half-life: mouse; for half-life: mean average, n = 2
Protocol: SGC-GAK-1 (1) was incubated with MLMs in the presence or absence of added NADPH, and the compound was quantified at various time points over an hour.
The metabolic stability of the 4-anilinoquinolines (8–13) were evaluated in MLMs (Table 1). Half-lives for metabolic clearance were normalized to propranolol in each experimental run to control for variations in the MLM preparations.

AAK1 [3] = biological target: T2, AAK1 (Homo sapiens, UniProt Q2M2I8); experiment: NAK family TR-FRET binding displacement assay; conditions: NAK family FRET screening
BMP2K = BMP2K (Homo sapiens, UniProt Q9NSY1); experiment: NAK family TR-FRET binding displacement assay
STK16 [4] = biological target: T3, STK16 (Homo sapiens, UniProt O75716); experiment: NAK family TR-FRET binding displacement assay; conditions: NAK family FRET screening; read-out: Binding displacement assay STK16 Ki
Kinetic Solubility = format: physicochemical; conditions: pH 7.4, aqueous buffer, kinetic from dmso stock, PBS pH7.4 (100 µM)
[5] = biological target: T4, ABL1(Y253F)-phosphorylated (Homo sapiens, UniProt P00519, Y253F); experiment: KINOMEscan; format: binding; conditions: 35 at 1 µM; read-out: % inhibition
T4 construct: purchased Eurofins DiscoverX (KINOMEscan)
Protocol: (§1) KinomeScan Assay on 35 was performed as previously described at EuroFins DiscoverX (Fremont, CA, USA).

ABL1-phosphorylated = biological target: T5, ABL1-phosphorylated (Homo sapiens, UniProt P00519); experiment: KINOMEscan; format: binding; conditions: 35 at 1 µM; read-out: % inhibition
T5 construct: purchased Eurofins DiscoverX (KINOMEscan)
Protocol: as §1

CSK = biological target: T6, CSK (Homo sapiens, UniProt P41240); experiment: KINOMEscan; format: binding; conditions: 35 at 1 µM; read-out: % inhibition
T6 construct: purchased Eurofins DiscoverX (KINOMEscan)
Protocol: as §1

FLT4 = biological target: T7, FLT4 (Homo sapiens, UniProt P35916); experiment: KINOMEscan; format: binding; conditions: 35 at 1 µM; read-out: % inhibition
T7 construct: purchased Eurofins DiscoverX (KINOMEscan)
Protocol: as §1

GRK7 = biological target: T8, GRK7 (Homo sapiens, UniProt Q8WTQ7); experiment: KINOMEscan; format: binding; conditions: 35 at 1 µM; read-out: % inhibition
T8 construct: purchased Eurofins DiscoverX (KINOMEscan)
Protocol: as §1

SIK2 = biological target: T9, SIK2 (Homo sapiens, UniProt Q9H0K1); experiment: KINOMEscan; format: binding; conditions: 35 at 1 µM; read-out: % inhibition
T9 construct: purchased Eurofins DiscoverX (KINOMEscan)
Protocol: as §1

STK39 = biological target: T10, STK39 (Homo sapiens, UniProt Q9UEW8); experiment: KINOMEscan; format: binding; conditions: 35 at 1 µM; read-out: % inhibition
T10 construct: purchased Eurofins DiscoverX (KINOMEscan)
Protocol: as §1

EGFR(L747-T751del,Sins) = experiment: KINOMEscan; format: binding, human; conditions: 35 at 1 µM; read-out: % inhibition
Protocol: as §1

FLT3(ITD) = experiment: KINOMEscan; format: binding, human; conditions: 35 at 1 µM; read-out: % inhibition
Protocol: as §1

FLT3(ITD,D835V) = experiment: KINOMEscan; format: binding, human; conditions: 35 at 1 µM; read-out: % inhibition
Protocol: as §1

FLT3(ITD,F691L) = experiment: KINOMEscan; format: binding, human; conditions: 35 at 1 µM; read-out: % inhibition
Protocol: as §1

AAK1 [6] = biological target: T2, AAK1; experiment: KINOMEscan; format: binding; set-up: purchased Eurofins DiscoverX (KINOMEscan); conditions: 35 at 1 µM; read-out: % inhibition
Protocol: as §1

GAK [7] = biological target: T1, GAK; experiment: KINOMEscan; format: binding; set-up: purchased Eurofins DiscoverX (KINOMEscan)
Protocol: as §1

STK16 [8] = biological target: T3, STK16; experiment: KINOMEscan; format: binding; set-up: purchased Eurofins DiscoverX (KINOMEscan); conditions: 35 at 1 µM; read-out: % inhibition
Protocol: as §1

[9] = Clint (mL/min/kg) (+) ABT, (+) ABT
[10] = Clint (mL/min/kg) (−) ABT, (−) ABT
[11] = T1/2 (min), mouse liver microsomes with NADPH
[12] = read-out: Kinetic Solubility µM
[13] = read-out: Kinetic Solubility µg/mL

T3 sequence (O75716 whole entry): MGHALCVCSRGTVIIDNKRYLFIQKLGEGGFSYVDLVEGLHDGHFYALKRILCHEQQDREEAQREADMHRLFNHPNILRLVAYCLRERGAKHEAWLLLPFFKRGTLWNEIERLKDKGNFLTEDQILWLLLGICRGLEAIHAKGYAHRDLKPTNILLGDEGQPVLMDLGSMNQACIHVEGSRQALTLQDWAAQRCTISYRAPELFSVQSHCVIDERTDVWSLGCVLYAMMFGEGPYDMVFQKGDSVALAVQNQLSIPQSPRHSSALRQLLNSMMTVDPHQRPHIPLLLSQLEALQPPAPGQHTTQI
T2 sequence (Q2M2I8 whole entry): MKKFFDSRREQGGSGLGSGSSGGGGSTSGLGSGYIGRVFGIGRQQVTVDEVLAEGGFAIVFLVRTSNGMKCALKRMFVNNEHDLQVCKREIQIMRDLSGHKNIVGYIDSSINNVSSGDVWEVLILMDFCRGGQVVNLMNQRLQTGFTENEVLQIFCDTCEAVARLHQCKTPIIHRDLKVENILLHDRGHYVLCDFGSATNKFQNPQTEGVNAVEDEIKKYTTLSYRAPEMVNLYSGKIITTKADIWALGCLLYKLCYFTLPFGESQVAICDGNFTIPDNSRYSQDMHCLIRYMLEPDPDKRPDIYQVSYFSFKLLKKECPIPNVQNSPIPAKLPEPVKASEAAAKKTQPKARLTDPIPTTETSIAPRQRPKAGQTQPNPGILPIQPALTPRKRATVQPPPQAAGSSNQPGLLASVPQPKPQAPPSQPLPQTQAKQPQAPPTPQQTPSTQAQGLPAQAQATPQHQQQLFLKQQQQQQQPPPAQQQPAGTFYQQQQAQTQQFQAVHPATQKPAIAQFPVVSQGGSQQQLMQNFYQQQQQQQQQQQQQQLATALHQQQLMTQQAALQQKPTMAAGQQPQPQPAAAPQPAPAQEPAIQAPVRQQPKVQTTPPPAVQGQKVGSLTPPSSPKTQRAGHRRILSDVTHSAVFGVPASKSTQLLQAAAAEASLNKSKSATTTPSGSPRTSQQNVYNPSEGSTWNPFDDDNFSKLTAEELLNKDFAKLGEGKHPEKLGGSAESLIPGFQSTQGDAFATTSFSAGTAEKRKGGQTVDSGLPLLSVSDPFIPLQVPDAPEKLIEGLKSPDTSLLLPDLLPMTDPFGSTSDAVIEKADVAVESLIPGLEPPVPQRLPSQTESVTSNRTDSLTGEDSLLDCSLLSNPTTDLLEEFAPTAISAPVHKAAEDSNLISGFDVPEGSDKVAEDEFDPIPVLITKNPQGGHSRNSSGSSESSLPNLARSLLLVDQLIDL
BMP2K, sequence (Q9NSY1 whole entry): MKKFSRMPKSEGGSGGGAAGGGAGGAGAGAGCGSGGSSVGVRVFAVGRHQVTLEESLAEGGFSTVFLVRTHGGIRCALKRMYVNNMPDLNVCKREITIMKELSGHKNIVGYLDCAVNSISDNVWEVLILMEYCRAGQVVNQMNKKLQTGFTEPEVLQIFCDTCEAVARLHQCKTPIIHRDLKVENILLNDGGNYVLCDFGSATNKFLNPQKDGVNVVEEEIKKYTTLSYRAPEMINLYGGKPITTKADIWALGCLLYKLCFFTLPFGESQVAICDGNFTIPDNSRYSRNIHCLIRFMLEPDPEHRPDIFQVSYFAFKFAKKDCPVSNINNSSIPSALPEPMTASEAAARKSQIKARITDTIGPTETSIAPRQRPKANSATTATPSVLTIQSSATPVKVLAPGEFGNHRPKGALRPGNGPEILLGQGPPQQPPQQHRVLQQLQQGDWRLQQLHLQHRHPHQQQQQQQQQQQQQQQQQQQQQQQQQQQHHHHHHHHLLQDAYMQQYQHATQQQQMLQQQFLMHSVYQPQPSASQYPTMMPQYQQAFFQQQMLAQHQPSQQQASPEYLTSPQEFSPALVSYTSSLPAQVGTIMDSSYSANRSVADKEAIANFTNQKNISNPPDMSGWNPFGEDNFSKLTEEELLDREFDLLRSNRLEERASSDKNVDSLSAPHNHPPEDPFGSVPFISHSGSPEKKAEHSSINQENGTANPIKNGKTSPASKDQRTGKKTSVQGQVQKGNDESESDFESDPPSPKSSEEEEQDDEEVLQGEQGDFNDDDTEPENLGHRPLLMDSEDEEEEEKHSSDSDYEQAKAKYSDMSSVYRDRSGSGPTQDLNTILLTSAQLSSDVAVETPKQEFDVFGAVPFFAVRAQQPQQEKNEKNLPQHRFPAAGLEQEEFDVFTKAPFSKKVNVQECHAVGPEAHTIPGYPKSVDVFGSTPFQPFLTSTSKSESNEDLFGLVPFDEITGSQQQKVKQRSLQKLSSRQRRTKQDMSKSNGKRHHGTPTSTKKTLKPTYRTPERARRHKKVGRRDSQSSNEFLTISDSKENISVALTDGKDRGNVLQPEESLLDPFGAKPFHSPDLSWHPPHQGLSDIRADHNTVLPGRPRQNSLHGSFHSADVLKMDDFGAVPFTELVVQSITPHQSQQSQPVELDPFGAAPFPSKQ
T6 sequence (P41240 whole entry): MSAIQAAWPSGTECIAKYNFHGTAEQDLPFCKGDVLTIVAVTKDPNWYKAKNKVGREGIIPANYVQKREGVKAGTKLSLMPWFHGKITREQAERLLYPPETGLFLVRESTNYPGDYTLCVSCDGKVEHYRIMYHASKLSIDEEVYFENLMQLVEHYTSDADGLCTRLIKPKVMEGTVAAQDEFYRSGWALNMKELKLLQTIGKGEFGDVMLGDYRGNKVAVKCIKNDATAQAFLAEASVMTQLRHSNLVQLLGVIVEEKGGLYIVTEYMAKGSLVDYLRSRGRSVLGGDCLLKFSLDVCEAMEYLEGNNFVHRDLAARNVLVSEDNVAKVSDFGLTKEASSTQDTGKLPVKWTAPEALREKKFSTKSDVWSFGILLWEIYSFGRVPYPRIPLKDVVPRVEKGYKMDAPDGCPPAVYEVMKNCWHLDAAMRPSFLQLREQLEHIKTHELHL
T8 sequence (Q8WTQ7 whole entry): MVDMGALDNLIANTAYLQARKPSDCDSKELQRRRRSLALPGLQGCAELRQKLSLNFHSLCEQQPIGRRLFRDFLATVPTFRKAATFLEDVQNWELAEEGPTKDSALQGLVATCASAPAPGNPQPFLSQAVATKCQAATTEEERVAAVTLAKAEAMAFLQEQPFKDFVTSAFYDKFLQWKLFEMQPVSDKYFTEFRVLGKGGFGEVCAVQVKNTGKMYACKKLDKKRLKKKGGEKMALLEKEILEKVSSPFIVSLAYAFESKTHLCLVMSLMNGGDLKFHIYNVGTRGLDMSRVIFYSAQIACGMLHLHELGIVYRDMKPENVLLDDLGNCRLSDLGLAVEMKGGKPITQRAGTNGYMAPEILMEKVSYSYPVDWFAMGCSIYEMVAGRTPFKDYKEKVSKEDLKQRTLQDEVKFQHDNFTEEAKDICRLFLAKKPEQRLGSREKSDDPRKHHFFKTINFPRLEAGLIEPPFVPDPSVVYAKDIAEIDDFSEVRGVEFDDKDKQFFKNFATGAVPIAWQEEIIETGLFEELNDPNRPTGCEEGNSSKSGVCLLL
T7 sequence (P35916 25-1363): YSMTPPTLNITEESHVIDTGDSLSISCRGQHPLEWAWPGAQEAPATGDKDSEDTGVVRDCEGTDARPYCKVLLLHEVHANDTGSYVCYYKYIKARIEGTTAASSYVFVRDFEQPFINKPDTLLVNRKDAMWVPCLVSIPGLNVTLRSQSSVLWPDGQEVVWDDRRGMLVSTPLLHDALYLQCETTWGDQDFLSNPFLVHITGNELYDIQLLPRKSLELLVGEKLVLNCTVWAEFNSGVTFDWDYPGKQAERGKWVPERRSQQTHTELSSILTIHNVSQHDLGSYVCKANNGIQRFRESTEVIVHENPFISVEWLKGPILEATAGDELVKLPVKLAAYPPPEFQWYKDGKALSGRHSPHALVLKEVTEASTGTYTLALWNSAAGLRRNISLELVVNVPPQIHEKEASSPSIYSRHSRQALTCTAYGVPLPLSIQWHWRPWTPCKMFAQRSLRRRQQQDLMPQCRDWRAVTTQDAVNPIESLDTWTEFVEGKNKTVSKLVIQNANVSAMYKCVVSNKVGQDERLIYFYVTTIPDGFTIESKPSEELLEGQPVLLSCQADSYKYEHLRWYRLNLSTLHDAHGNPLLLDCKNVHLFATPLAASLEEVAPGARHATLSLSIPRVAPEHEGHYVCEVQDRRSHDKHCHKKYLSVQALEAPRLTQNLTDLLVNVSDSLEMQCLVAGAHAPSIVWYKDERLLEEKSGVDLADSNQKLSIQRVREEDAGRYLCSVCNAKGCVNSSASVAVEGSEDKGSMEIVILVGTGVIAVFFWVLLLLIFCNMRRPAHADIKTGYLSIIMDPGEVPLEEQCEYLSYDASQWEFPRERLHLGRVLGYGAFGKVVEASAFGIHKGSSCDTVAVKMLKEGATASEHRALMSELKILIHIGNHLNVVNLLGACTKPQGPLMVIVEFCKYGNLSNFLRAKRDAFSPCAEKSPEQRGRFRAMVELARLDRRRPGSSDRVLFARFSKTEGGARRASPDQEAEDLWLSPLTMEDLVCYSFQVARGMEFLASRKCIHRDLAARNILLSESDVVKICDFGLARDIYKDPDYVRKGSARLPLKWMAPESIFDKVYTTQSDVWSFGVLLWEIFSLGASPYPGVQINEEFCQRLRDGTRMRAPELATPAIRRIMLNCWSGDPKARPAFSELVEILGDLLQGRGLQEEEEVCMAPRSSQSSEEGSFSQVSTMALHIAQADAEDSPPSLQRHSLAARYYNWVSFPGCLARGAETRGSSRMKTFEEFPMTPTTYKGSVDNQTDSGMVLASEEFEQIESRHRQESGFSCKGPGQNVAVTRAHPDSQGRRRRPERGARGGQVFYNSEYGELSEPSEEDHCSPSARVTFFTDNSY

Compound | T1/2 Ratio (+) ABT ([2]; (+) ABT) | T1/2 Ratio (−) ABT ([2]; (−) ABT) | T1/2 Ratio [2] | CLint scaled [2, 9] [L/h/kg] | CLint scaled [2, 10] [L/h/kg] | half-life ([2]; T1/2 (min) (+) ABT, (+) ABT) | half-life ([2]; T1/2 (min) (−) ABT, (−) ABT) | half-life [2, 11] [min] | Ki (AAK1 [3]) [µM] | Ki (BMP2K) [µM] | Ki (STK16 [4]) [µM] | solubility kinetic (Kinetic Solubility; [12]) [µM] | solubility kinetic (Kinetic Solubility; [13]) [µg/mL] | other results
COc1cc2nccc(Nc3cc(OC)c(OC)c(OC)c3)c2cc1OC [Compound 8] | 14.7 | 1.3 | 1.6 | < 1.68 | 19.2 | > 200 | 18 | 12.2 | 28 | 63 | > 100 | 128 | 47.6 | Ki (GAK [1]; NAK family FRET screening, read-out: Binding displacement assay GAK Ki): 0.00054 µM
Brc1ccc2nccc(Nc3ccc4cn[nH]c4c3)c2c1 [Compound 35, 6-Bromo-N-(1H-indazol-6-yl)quinolin-4-amine] | 17.5 | 9.8 | 9.8 | 2.1 | 7.2 | 170 | 46 | 45.6 | 2.1 | 6.5 | 7.4 | 12.3 | 4.2 | Ki (GAK [1]; TR-FRET assay, read-out: Biochemical GAK Ki): 0.02 µM; T1/2 ratios fold higher than 9 [2]: ≥ 2 fold; activity at 1 µM [5]: 100%; activity at 1 µM (ABL1-phosphorylated): 46%; activity at 1 µM (CSK): 100%; activity at 1 µM (FLT4): 100%; activity at 1 µM (GRK7): 100%; activity at 1 µM (SIK2): 97%; activity at 1 µM (STK39): 100%; activity (EGFR(L747-T751del,Sins)): 100%; activity (FLT3(ITD)): 97%; activity (FLT3(ITD,D835V)): 100%; activity (FLT3(ITD,F691L)): 100%; activity at 1 µM (AAK1 [6]): 100%; activity at 1 µM (GAK [7]; 35 at 1 µM, read-out: % inhibition): 10%; inhibition at 1 µM (GAK [7]; KinomeScan, screened at 1 μM, read-out: kinases inhibited at 1 μM: GAK): 90%; activity at 1 µM (STK16 [8]): 98%
